In the experiment the target is T1, Trx-rHelja (Helianthus annuus, UniProt A0A059VAE5).
T1 construct: N-terminal thioredoxin, His6 and enterokinase-site tags kept; E. coli Rosetta-gami2 (DE3) pLysS; about 35 kDa fusion (Helja about 20 kDa)
As to the kind of experiment: affinity chromatography on D-mannose-agarose, elution with mannose, SDS-PAGE. Conditions: 50 mM Tris-HCl pH 7.5, 100 mM NaCl; D-mannose immobilised on agarose; eluted with 200 mM free mannose. Format: binding.

T1 sequence (A0A059VAE5 entry or part of it): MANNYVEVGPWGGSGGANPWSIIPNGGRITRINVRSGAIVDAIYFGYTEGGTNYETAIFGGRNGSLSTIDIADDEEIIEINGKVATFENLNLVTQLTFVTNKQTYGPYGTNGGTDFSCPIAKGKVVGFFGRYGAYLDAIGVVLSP

In the case of `OC[C@H]1OC(O)[C@@H](O)[C@@H](O)[C@@H]1O` (stereo partly shown) [mannose], the “affinity chromatography on D-mannose-agarose, elution with mannose, SDS-PAGE” value was “the recombinant protein was bounded to the matrix and eluted with mannose”.
